The METLIN SMRT retention time set (Domingo-Almenara et al. 2019)

Assay: gradient 5% acetonitrile 3 min, to 50% in 2 min, to 85% in 15 min, held 3 min, 100 µL/min
Settings: column: Zorbax Extend-C18 2.1 x 50 mm; eluents: water / acetonitrile, 0.1% formic acid
In short: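 Retention time was recorded from adduct peaks, which were picked computationally and each inspected manually. Pure standards ran in mixtures of ~100 molecules on HPLC coupled to a quadrupole time-of-flight mass spectrometer, in positive and negative ionization mode, through a Zorbax Extend-C18 column (2.1 × 50 mm, 1.8 μm) at 100 μL/min. Eluents were water and acetonitrile, each with 0.1% formic acid.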
In the case of `CCCS(=O)(=O)c1nc2ccc(NS(=O)(=O)c3c(C)cc(C)cc3C)cc2s1`, the RP-LC retention time is reported as 1030 s. `CC(C)(C)NC(=O)N[C@H](C(=O)N1C[C@H]2[C@@H]([C@H]1C(=O)NC(CC1CCC1)C(=O)C(N)=O)C2(C)C)C(C)(C)C` (stereo partly drawn) gave an RP-LC retention time of 1020 s. Compound `Cc1sc(NC(=O)CCC2CCCCC2)nc1-c1ccc2c(c1)NC(=O)C(C)O2` (stereo not drawn) has an RP-LC retention time of 679 s. With `Cn1c(=O)n(C)c2cc(S(=O)(=O)c3ccccc3)c(NC(=O)Cc3cccc(F)c3)cc21` the RP-LC retention time was 799 s. Compound `COCCC(=O)N1CCC2(CCC2O)CC1` (stereo not drawn) has an RP-LC retention time of 593 s. Compound `COc1cccc(-c2nc(C3CCN(C(=O)c4n[nH]c5c4CCCC5)CC3)no2)c1` has an RP-LC retention time of 847 s. Work on `Cc1csc(-c2cc(S(=O)(=O)Nc3ccc(Cl)cc3F)c(C)s2)n1` yielded an RP-LC retention time of 1080 s. Work on `COc1ccc(-c2nnc(-c3ccc(OC)c(S(=O)(=O)N4CCOCC4)c3)o2)cc1OC` yielded an RP-LC retention time of 768 s. In the case of `Cc1ccc(F)cc1S(=O)(=O)N1CCC2(C1)C(=O)Nc1ccccc12` (stereo not drawn), the RP-LC retention time is reported as 866 s. `CC1CCC(NC(=O)CCn2nc(C(=O)N3c4ccccc4CC3C)ccc2=O)CC1` (stereo not drawn) gave an RP-LC retention time of 851 s. Compound `O=C(NCc1cccs1)c1cccnc1N1CCNC(c2ccccc2)C1` (stereo not drawn) has an RP-LC retention time of 612 s. `Cc1ccc(Cn2c(N3CCCC(C(=O)Nc4ccc(Cl)cc4)C3)nc3ccsc3c2=O)cc1` (stereo not drawn) showed an RP-LC retention time of 1160 s. In the case of `COc1cccc(-c2ccnc3nc(-c4ccccc4)nn23)c1`, the RP-LC retention time is reported as 919 s. Compound `CCOC(=O)c1c(C)oc2nc(C)nc(N3CCN(Cc4ccccc4)CC3)c12` has an RP-LC retention time of 583 s. Work on `COc1ccc(C(O)CN2CCN(c3cccc(C)c3)CC2)cc1OC` (stereo not drawn) yielded an RP-LC retention time of 653 s. Work on `CC1=C(c2ccccc2)S(=O)(=O)N=C1N1CCCN(C(=O)NC(C)C)CC1` yielded an RP-LC retention time of 714 s. In the case of `Cc1ccsc1C(=O)N1CCCC2(CC1)CN(C)C(=O)O2` (stereo not drawn), the RP-LC retention time is reported as 661 s. `CCC(c1cccs1)N1C(=O)[C@H]2CN(S(=O)(=O)c3ccccc3)C[C@H]2C1=O` (stereo partly drawn) gave an RP-LC retention time of 946 s. Work on `CCOC(=O)N1CCN(C(=O)CSc2nnc(C3COc4ccccc4O3)o2)CC1` (stereo not drawn) yielded an RP-LC retention time of 762 s. Work on `CCCNC(=O)NC1CCN(c2nc3ccccc3n(CC)c2=O)CC1` yielded an RP-LC retention time of 770 s. Compound `COc1ccc(S(=O)(=O)Nc2cc(-c3cn4ccccc4n3)ccc2C)cc1` has an RP-LC retention time of 797 s. Compound `Cc1ccc(Cl)cc1-n1ncc2c(=O)n(Cc3nc(-c4cccc(C(F)(F)F)c4)no3)cnc21` has an RP-LC retention time of 1180 s. Compound `Cc1csc(C(=O)Nc2ccc(N3CCCN(C(=O)C4CC4)CC3)cc2)c1` has an RP-LC retention time of 735 s. In the case of `COc1ccc(-c2nc(Cc3noc(Cc4cccc(F)c4)n3)c(C)o2)cc1`, the RP-LC retention time is reported as 1000 s. `CCOc1ccc(NC(=O)Cn2c(=O)n(-c3ccc(C)cc3)c(=O)c3c2cc(C)n3C)cc1` gave an RP-LC retention time of 824 s. In the case of `CC(=O)c1c(C)oc2ccc(NS(=O)(=O)c3cccc([N+](=O)[O-])c3)cc12`, the RP-LC retention time is reported as 822 s. `COc1cc(CNC(=O)C2CCN(Cc3cn(C)c4ccccc34)CC2)cc(OC)c1` showed an RP-LC retention time of 674 s. `COc1ccc(N2CC(c3noc(-c4cc(OC)cc(OC)c4)n3)CC2=O)cc1` (stereo not drawn) showed an RP-LC retention time of 959 s. Compound `CN(C)CC[C@@H](c1ccc(Br)cc1)c1ccccn1` has an RP-LC retention time of 682 s. `CCOC(=O)C1CCN(C(=O)CN2C(=O)COc3ccc(C(=O)N(CC)CC)cc32)CC1` showed an RP-LC retention time of 700 s. Compound `CC(=O)c1cccc(NC(=O)c2cc(Cl)ccc2Cl)c1` has an RP-LC retention time of 848 s. With `Cc1cc(F)ccc1NC(=O)c1sc(-c2cn(C)c3ncccc23)nc1C` the RP-LC retention time was 899 s. For `CCNC(=O)NCCc1cn(C)c2ncccc12`, the RP-LC retention time was 556 s. For `CCn1c(C2CCN(S(=O)(=O)c3ccc4c(c3)CCCC4)C2)nc2ccncc21` (stereo not drawn), the RP-LC retention time was 585 s. For `CSc1nc(N2CCCC2)c2cnn(CCNC(=O)CSc3ccc(F)cc3)c2n1`, the RP-LC retention time was 829 s. With `Cc1cccc(C(=O)NCCc2cn(CC(C)C)c3ncccc23)c1` the RP-LC retention time was 827 s. Compound `COc1cccc(Nc2c(-c3ccc(N(C)C)cc3)nc3cnccn23)c1` has an RP-LC retention time of 771 s. In the case of `CC(=O)c1cccc(NC(=O)Cn2c(-c3ccccc3)nc(C)cc2=O)c1`, the RP-LC retention time is reported as 912 s. With `Fc1cccc(-c2noc(Cc3nc(-c4ccccc4Cl)cs3)n2)c1` the RP-LC retention time was 1260 s. `Cc1cc(N(C)C)n2nc(CN3CCN(c4ccccc4C)CC3)nc2n1` showed an RP-LC retention time of 633 s. `Cc1ccccc1-c1nnc(COc2ccc(NC(=O)c3ccsc3)cc2)o1` gave an RP-LC retention time of 911 s. For `O=C(NC1CCCCC1)c1ccc(Cn2cncn2)cc1`, the RP-LC retention time was 671 s. Work on `O=C(NC1CCCCCC1)c1ccc2c(c1)nc1n2CCN(Cc2ccccc2)C1=O` yielded an RP-LC retention time of 829 s. Work on `CNC(=O)N1CCCC(c2cccc(C(=O)N3CCN(c4ccccc4F)CC3)c2)C1` (stereo not drawn) yielded an RP-LC retention time of 834 s. For `CC(C)C(=O)Nc1nc(-c2ccc3c(c2)N(C)C(=O)CO3)cs1`, the RP-LC retention time was 787 s. With `Cc1ccc(CNS(=O)(=O)c2c(-c3nnc(C)o3)c(C)n(C)c2C)o1` the RP-LC retention time was 780 s. In the case of `COc1cccc(CNC(=O)CN2C(=O)NC3(CCC(C(C)(C)C)CC3)C2=O)c1OC` (stereo not drawn), the RP-LC retention time is reported as 943 s. In the case of `CCOC(=O)c1c(C)[nH]c(NC(=O)N2CCN(c3ccc(OC)cc3)CC2)c1C`, the RP-LC retention time is reported as 703 s. `Cc1cc(C)cc(Oc2nccn3c(=O)n(CC(=O)NC(C)(C)C)nc23)c1` showed an RP-LC retention time of 859 s. Work on `Cc1ccc(C)c(N2CCN(c3ccnc(SCC(=O)NCc4ccc(F)cc4)n3)CC2)c1` yielded an RP-LC retention time of 908 s. For `CN(c1nc2ccccc2s1)C1CCN(C[C@H](O)COc2ccc(F)c(F)c2)CC1`, the RP-LC retention time was 777 s. For `CCOC(=O)c1sc(NC(=O)c2cc(C)n(C)n2)nc1-c1ccccc1`, the RP-LC retention time was 928 s. Compound `COc1ccc(N2CCN(c3cc(C(=O)O)c4cc(NC(=O)CC(C)C)ccc4n3)CC2)cc1` has an RP-LC retention time of 655 s. With `Cc1nnc(NC(=O)c2ccccc2OCc2nc(-c3ccccc3)no2)s1` the RP-LC retention time was 953 s. `COc1ccc(NC(=O)c2nnc(CSCC(=O)NCCc3c[nH]c4ccc(C)cc34)s2)cc1` showed an RP-LC retention time of 910 s. `CCC(=O)N(C)CCc1noc(-c2ccc(C(=O)NCCN(C)C)cc2)n1` gave an RP-LC retention time of 579 s. `O=C(Nc1ccc(F)cc1)N1CCC(CCNC(=O)C2(c3ccccc3)CC2)CC1` gave an RP-LC retention time of 897 s. `O=C(Nc1cc(F)cc(F)c1)C1CCN(c2cc(N3CCCC3)ncn2)CC1` gave an RP-LC retention time of 724 s. `CCCCC(=O)Nc1ccc(SCc2nnc(-c3ccc4c(c3)OCO4)o2)cc1` showed an RP-LC retention time of 948 s. With `O=c1ccc(-c2ccccc2)nn1CCc1nc(-c2ccc3c(c2)OCO3)no1` the RP-LC retention time was 900 s. For `CC(C)NC(=O)c1nsc(C(=O)NC2CC2)c1N`, the RP-LC retention time was 713 s. Compound `COc1ccc(NC(=O)CC(C)=O)c(OC)c1` has an RP-LC retention time of 649 s. With `Cc1ccc(-c2noc(-c3ccc(=O)n(Cc4cccc(F)c4)n3)n2)cc1` the RP-LC retention time was 1150 s. With `O=C(CN1N=C(c2ccccc2)c2ccccc2S1(=O)=O)Nc1cccc(Cl)c1` the RP-LC retention time was 1020 s. `Cc1cc(N2CCC(NC(=O)Nc3ccccc3Cl)C2=O)ccc1F` (stereo not drawn) showed an RP-LC retention time of 878 s. With `Cc1ccc(C)c(NC(=O)Cc2nnc(-c3ccc4ncccc4c3)o2)c1` the RP-LC retention time was 736 s. Compound `CCCNc1cc(N2CCC(CCC(=O)NCc3ccc(F)cc3Cl)CC2)ncn1` has an RP-LC retention time of 727 s. In the case of `O=C(NCC1CCN(C(=O)c2cc3ccccc3o2)CC1)c1cc(-c2ccccc2)on1`, the RP-LC retention time is reported as 903 s. For `Cc1cc(=O)n(CC(=O)NCc2ccc(F)cc2F)c(N2CCCCC2)n1`, the RP-LC retention time was 657 s. Work on `O=C(Nc1nnc(SCc2ccccc2F)s1)c1ccccc1C(F)(F)F` yielded an RP-LC retention time of 944 s. `N#Cc1ccc(NC(=O)C(=O)c2ccc[nH]2)cc1` showed an RP-LC retention time of 801 s. For `Cc1cc(=O)n(CC(=O)N2CCN(c3ccc(F)cc3)CC2)c(N2CCOCC2)n1`, the RP-LC retention time was 674 s. In the case of `COC(=O)c1ccccc1NC(=O)NCCc1c(C)nn(C)c1C`, the RP-LC retention time is reported as 629 s. `Cc1csc(-c2cc(S(=O)(=O)NCCCN3CCc4ccccc4C3)c(C)s2)n1` gave an RP-LC retention time of 708 s. `CCOC(=O)c1c(C)[nH]c(CCC(=O)NC(C)CC)c1C` (stereo not drawn) gave an RP-LC retention time of 762 s. `COc1cccc2sc(N(CCCN(C)C)C(=O)c3cccc(C(F)(F)F)c3)nc12` showed an RP-LC retention time of 622 s. For `COC(=O)C(Cc1ccccc1)NC(=O)N1CCCn2nc(-c3cccnc3)cc2C1` (stereo not drawn), the RP-LC retention time was 616 s. `Cc1cc2ccccc2n1CCNC(=O)C(=O)c1c[nH]c2ccccc12` showed an RP-LC retention time of 1010 s. With `Cn1nnc2ccc(-c3noc(Cc4cccc(F)c4)n3)cc21` the RP-LC retention time was 921 s. Work on `CCOc1ccc(CN(CCOC)Cc2cc(=O)n3cc(Cl)ccc3n2)cc1` yielded an RP-LC retention time of 677 s. Compound `O=C(c1ccc2c(c1)OCO2)N1CCCN(C(=O)C2CC2)c2ccccc21` has an RP-LC retention time of 715 s. `CCC(CC)CN1CCC(n2c(C)cnc2-c2ccncc2)C1` (stereo not drawn) showed an RP-LC retention time of 542 s. `Cc1ccc2c(c1)cc(S(=O)(=O)c1ccccc1)c(=O)n2CC(=O)NCC1CCCO1` (stereo not drawn) gave an RP-LC retention time of 765 s. With `COCC(C)NS(=O)(=O)c1c(C)[nH]c(=O)[nH]c1=O` (stereo not drawn) the RP-LC retention time was 570 s. Compound `O=C(c1ccc2cc[nH]c2c1)N1CCCN(c2cc(-c3ccc(Cl)cc3)[nH]n2)CC1` has an RP-LC retention time of 770 s. Compound `Cc1cccc(Sc2nccnc2N2CCC(C(=O)NCCC3=CCCCC3)CC2)c1` has an RP-LC retention time of 1220 s. `O=C(CCc1nnn2c1CN(C(=O)c1ccccc1)CC2)NC1CC1` showed an RP-LC retention time of 604 s. `O=C(Nc1ccc(N2CCOCC2)cc1)C1CCCN(c2ncc(-c3cccc(F)c3)cn2)C1` (stereo not drawn) showed an RP-LC retention time of 969 s.
